The values below are quoted from earlier work in US20220273570A1, “Self-Microemulsifying Multi-Deliverable Systems” (Quicksilver Scientific, Inc., priority 2019, published 2022).

SMILES strings stand for the structures. Where two headings read alike, the source gives them in different places.

The conditions of data set [1]: up to.
Data set [2] concerns human hepatoma cell line (HepG2).
For data set [3] the following is noted: rats, oral.
For data set [4] the following is noted: oral; extensively metabolized into glucuronide conjugate.

`C[C@]12CC[C@H](O)CC1=CC[C@@H]1[C@@H]2CC[C@]2(C)C(=O)CC[C@@H]12` [DHEA]: in data set [1] (MCT oil), the “solubility in MCT oil” value is recorded as “approximately 10 mg/mL”. Moreover, the solubility in ethanol entry in data set [1] (ethanol) is “approximately 150 mg/mL”. With `COc1cc(/C=C/C(=O)CC(=O)/C=C/c2ccc(O[C@@H]3O[C@H](C(=O)O)[C@@H](O)[C@H](O)[C@H]3O)c(OC)c2)ccc1O` [curcumin-glucuronide], the “effects on gene expression compared with free curcumin” value in data set [2] was “weaker”. Regarding `COc1cc(/C=C/C(=O)CC(=O)/C=C/c2ccc(O)c(OC)c2)ccc1O` [curcumin], in data set [3], the “bioavailability of orally administered solid curcumin powder” value is 1%. `O=c1c(O)c(-c2ccc(O)c(O)c2)oc2cc(O)cc(O)c12` [quercetin]: the elimination half-life (after oral ingestion of quercetin containing foods or supplements) was 1 to 2 h. Also, the bioavailability (humans, low and highly variable) was 0-50%.

Consider `Oc1ccc(/C=C/c2cc(O)cc(O)c2)cc1` [resveratrol, 3,5,4′-trihydroxy-trans-stilbene], for which the bioavailability entry in data set [4] is recorded as “about 0.5%”.
